In ChEMBL document CHEMBL4665636, “Spirooxindole-pyrrolidine heterocyclic hybrids promotes apoptosis through activation of caspase-3” (Bioorg Med Chem, 2019) one finds IC50 and Activity data, which are given here for 13 compounds.

Calls of active or inactive are those of the source. The rule behind the calls is not given here.

Data set [1] relates to A549. Briefly: Antiproliferative activity against human A549 cells assessed as reduction in cell proliferation measured after 24 hrs by MTT assay. The data set is classed as functional, cell-based. Conditions: A549, 24 h. (Tetrazolium dyes change colour on reduction, which living cells bring about.)
Data set [2] concerns Jurkat. Briefly: Antiproliferative activity against human Jurkat cells assessed as reduction in cell proliferation measured after 24 hrs by MTT assay. The data set is classed as functional, cell-based.
Data set [3] deals with A549. Briefly: Antiproliferative activity against human A549 cells assessed as reduction in cell proliferation measured after 48 hrs by MTT assay. The note with it: A549, 48 h. The data set is classed as functional, cell-based.
A short description of data set [4]: Cytotoxicity against human MCF10 cells assessed as reduction in cell viability up to 200 uM measured up to 48 hrs by MTT assay. Format: cell-based. Conditions: mcf10, 48 h.
The nature of data set [5]: Cytotoxicity against human PCS-130-010 cells assessed as reduction in cell viability up to 200 uM measured up to 48 hrs by MTT assay. Format: cell-based. Conditions: pcs-130-010, 48 h.
Data set [6] concerns Jurkat. Briefly: Antiproliferative activity against human Jurkat cells assessed as reduction in cell proliferation measured after 48 hrs by MTT assay. The data set is classed as functional, cell-based.
The test system of data set [7] is A549. The data set can be described thus: Induction of apoptosis in human A549 cells assessed as effect on viable cells by measuring fluorescence intensity IC50 measured after 24 hrs by annexicV-FITC/propidium iodide staining based flow cytometry analysis (reference value: 96.25 %). The data set is classed as functional. A general note: In flow cytometry, cells or beads pass a laser one at a time.

Data set [8] deals with A549. The data set can be described thus: Induction of apoptosis in human A549 cells assessed as late apoptotic cells at IC50 measured after 48 hrs by annexicV-FITC/propidium iodide staining based flow cytometry analysis (reference value: 0 %). The data set is classed as functional.
Data set [9] relates to A549. The data set can be described thus: Induction of apoptosis in human A549 cells assessed as distribution of cleaved caspase 3 in cytoplasm at IC50 after 24 to 48 hrs by FITC staining based microscopy analysis. Format: functional, cell-based. Conditions: time hrs 24-48.
The subject of data set [10] is A549. The data set can be described thus: Induction of apoptosis in human A549 cells assessed as early apoptotic cells at IC50 measured after 48 hrs by annexicV-FITC/propidium iodide staining based flow cytometry analysis (reference value: 3.02 %). Format: functional.
The subject of data set [11] is A549. Briefly: Induction of apoptosis in human A549 cells assessed as viable cells at IC50 measured after 24 hrs by annexicV-FITC/propidium iodide staining based flow cytometry analysis (reference value: 99.11 %). The data set is classed as functional.
Data set [12] relates to A549. Briefly: Induction of apoptosis in human A549 cells assessed as viable cells at IC50 measured after 48 hrs by annexicV-FITC/propidium iodide staining based flow cytometry analysis (reference value: 99.67 %). Format: functional.
In data set [13] the test system is A549. Briefly: Induction of apoptosis in human A549 cells assessed as viable cells by measuring fluorescence intensity at IC50 measured after 48 hrs by annexicV-FITC/propidium iodide staining based flow cytometry analysis (reference value: 96.89 %). The data set is classed as functional.
Data set [14] concerns A549. Briefly: Induction of apoptosis in human A549 cells assessed as necrotic cells at IC50 measured after 24 hrs by annexicV-FITC/propidium iodide staining based flow cytometry analysis (reference value: 0.23 %). Format: functional.
Data set [15] concerns A549. The data set can be described thus: Induction of apoptosis in human A549 cells at IC50 measured after 24 hrs by annexicV-FITC/propidium iodide staining based flow cytometry analysis (reference value: 3.63 %). The data set is classed as functional.
For data set [16], the system named is A549. Briefly: Induction of apoptosis in human A549 cells assessed as late apoptotic cells at IC50 measured after 24 hrs by annexicV-FITC/propidium iodide staining based flow cytometry analysis (reference value: 0.5 %). Format: functional.
In data set [17] the test system is A549. Briefly: Induction of apoptosis in human A549 cells assessed as necrotic cells at IC50 measured after 48 hrs by annexicV-FITC/propidium iodide staining based flow cytometry analysis (reference value: 0 %). Format: functional.
In data set [18] the test system is A549. Briefly: Induction of apoptosis in human A549 cells assessed as early apoptotic cells at IC50 measured after 24 hrs by annexicV-FITC/propidium iodide staining based flow cytometry analysis (reference value: 0.16 %). The data set is classed as functional.
In data set [19] the test system is A549. Briefly: Induction of apoptosis in human A549 cells assessed as early apoptotic cells at IC50 measured after 48 hrs by annexicV-FITC/propidium iodide staining based flow cytometry analysis (reference value: 0.33 %). The data set is classed as functional.
The subject of data set [20] is A549. The data set can be described thus: Induction of apoptosis in human A549 cells assessed as distribution of cleaved caspase 3 in nuclei at IC50 after 24 to 48 hrs by FITC staining based microscopy analysis. The data set is classed as functional, cell-based. The note with it: time hrs 24-48.

Regarding `O=C1Nc2ccc(OC(F)(F)F)cc2C12NC(Cc1ccc(O)cc1)C([N+](=O)[O-])C2c1ccccc1` (centres undefined), the half-maximal inhibitory concentration (IC50) in the data set with A549 [1] was found to be 45.8 µM; with Jurkat [2], 65.8 µM; in the data set on A549 [3], 44.7 µM; with Jurkat [6] it was 45 µM. Further, the Activity result in [4] and in data set [5] was “Non-Toxic” in each case.

As to `O=C1Nc2ccc(OC(F)(F)F)cc2C12NC(Cc1ccc(O)cc1)C([N+](=O)[O-])C2c1ccc(Br)cc1` (centres undefined), the 50% inhibitory concentration (IC50) is 51.4 µM in the data set on A549 [1], 67.2 µM with Jurkat [2], 37.2 µM with A549 [3] and 44.1 µM in the data set on Jurkat [6]. The Activity entry in data set [4] and in data set [5] was “Non-Toxic” in each case.

Regarding `O=C1Nc2ccc(OC(F)(F)F)cc2C12NC(Cc1ccc(O)cc1)C([N+](=O)[O-])C2c1ccc(Cl)cc1` (centres undefined), the IC50 with A549 [1] was 44.9 µM; in the data set with Jurkat [2], 67.7 µM; in the data set on A549 [3], 38.1 µM; with Jurkat [6], 44.8 µM. Moreover, the Activity result in data set [4] and in data set [5] was “Non-Toxic” each time.

With `COc1ccc(C2C([N+](=O)[O-])C(Cc3ccc(O)cc3)NC23C(=O)Nc2ccccc23)cc1` (centres undefined), the IC50 in the data set on A549 [1] stood at 59.2 µM; in the data set with Jurkat [2], 76.2 µM; with A549 [3] it was 47.8 µM; in the data set with Jurkat [6], 47.5 µM. Also, the Activity result in [4] and in data set [5] was “Non-Toxic” each time.

As for `O=C1Nc2ccccc2C12NC(Cc1ccc(O)cc1)C([N+](=O)[O-])C2c1ccc(Br)cc1` (centres undefined), the IC50 worked out at 59.1 µM with A549 [1], 73.4 µM in the data set on Jurkat [2], 39.4 µM in the data set on A549 [3] and 43.2 µM with Jurkat [6]. Besides, the Activity result in data set [4] and in data set [5] was “Non-Toxic” in each case.

Consider `O=C1Nc2ccccc2C12NC(Cc1ccc(O)cc1)C([N+](=O)[O-])C2c1cccc([N+](=O)[O-])c1` (centres undefined), for which the IC50 with A549 [1] worked out at 78.4 µM; in the data set with Jurkat [2] it was 74.6 µM; with A549 [3], 117 µM; in the data set with Jurkat [6], 48.6 µM. Further, the Activity entry in data set [4] and in data set [5] was “Non-Toxic” in each case.

`COc1ccc(C2C([N+](=O)[O-])C(Cc3ccc(O)cc3)NC23C(=O)Nc2ccc(OC(F)(F)F)cc23)cc1` (centres undefined): the IC50 worked out at 53.5 µM in the data set on A549 [1], 62.9 µM in the data set on Jurkat [2], 41.6 µM in the data set on A549 [3] and 42 µM in the data set with Jurkat [6]. The Activity entry in data set [4] and in data set [5] was “Non-Toxic” in each case.

Consider `Cc1ccc(C2C([N+](=O)[O-])C(Cc3ccc(O)cc3)NC23C(=O)Nc2ccccc23)cc1` (centres undefined), for which the half-maximal inhibitory concentration (IC50) in the data set with A549 [1] was found to be 106 µM; with Jurkat [2], 114 µM; in the data set on A549 [3], 56.7 µM; with Jurkat [6], 47.8 µM. In addition, the Activity result in [4] and in data set [5] was “Non-Toxic” each time.

For the compound `Cc1ccc(C2C([N+](=O)[O-])C(Cc3ccc(O)cc3)NC23C(=O)Nc2ccc(OC(F)(F)F)cc23)cc1` (centres undefined), the Activity in the data set on A549 [7] amounted to 38.62%; with A549 [8], 17.79%; with A549 [10] it was 70.35%; in the data set with A549 [11], 58.92%; in the data set on A549 [12], 34.83%; in the data set on A549 [13], 29.53%. For the same compound, the Activity in the data set on A549 [14] is given as 0%; in the data set on A549 [15] it was 63.87%; in [4], “Non-Toxic”; in the data set on A549 [16], 9.63%; in data set [5], “Non-Toxic”; in the data set with A549 [17], 23.2%. Further, the Activity with A549 [18] amounted to 31.45%; with A549 [19] it was 24.18%. Also, the result with A549 [9] and in the data set with A549 [20] was Active. In addition, the concentration for half-maximal inhibition (IC50) was 38.7 µM with A549 [1], 52.8 µM in the data set on Jurkat [2], 29.6 µM in the data set on A549 [3] and 42.9 µM in the data set with Jurkat [6].

In the case of `O=C1Nc2ccccc2C12NC(Cc1ccc(O)cc1)C([N+](=O)[O-])C2c1ccc(Cl)cc1` (centres undefined), the half-maximal inhibitory concentration (IC50) with A549 [1] worked out at 74.4 µM; in the data set with Jurkat [2], 77.8 µM; in the data set on A549 [3] it was 59.2 µM; in the data set with Jurkat [6], 51.5 µM. Moreover, the Activity result in data set [4] and in data set [5] was “Non-Toxic” in each case.

Consider `O=C1Nc2ccc(OC(F)(F)F)cc2C12NC(Cc1ccc(O)cc1)C([N+](=O)[O-])C2c1cccc([N+](=O)[O-])c1` (centres undefined), for which the concentration for half-maximal inhibition (IC50) in the data set with A549 [1] came to 65 µM; with Jurkat [2], 83.3 µM; with A549 [3], 61.2 µM; in the data set on Jurkat [6] it was 50.1 µM. Moreover, the Activity result in data set [4] and in data set [5] was “Non-Toxic” each time.

Consider `O=C1Nc2ccccc2C12NC(Cc1ccc(O)cc1)C([N+](=O)[O-])C2c1ccccc1` (centres undefined), for which the IC50 with A549 [1] turned out to be 78.9 µM; in the data set on Jurkat [2], 98.3 µM; in the data set with A549 [3], 66.6 µM; with Jurkat [6], 61.6 µM. Also, the Activity result in data set [4] and in data set [5] was “Non-Toxic” in each case.

For `CC[C@@]1(O)C(=O)OCc2c1cc1n(c2=O)Cc2cc3ccccc3nc2-1` [CAMPTOTHECIN], the Activity is 58.66% in the data set with A549 [7]; 11.17% with A549 [8]; 61.13% in the data set on A549 [10]; 54.71% in the data set on A549 [11]; 53.97% in the data set on A549 [12]; 39.71% with A549 [13]. The Activity with A549 [14] was 6.31%; with A549 [15], 37.51%; with A549 [16] it was 28.49%; in the data set on A549 [17] it was 4.14%; in the data set with A549 [18], 10.49%; in the data set with A549 [19], 30.71%. The result in the data set with A549 [9] and in the data set with A549 [20] was Active. For the same compound, the IC50 is 50.9 µM with A549 [1], 51.5 µM in the data set with Jurkat [2], 32.1 µM with A549 [3] and 22 µM in the data set on Jurkat [6].

The term IC50 denotes the concentration that gives 50% inhibition.
